Source: patent US20250368687A1, “SHORT SYNTHETIC PEPTIDES AND USES THEREOF IN THE TREATMENT OF ENTEROVIRUS INFECTION” (CITY UNIVERSITY OF HONG KONG, priority 2024, published 2025)

Legend:
Type in all cases: cell-based
EV-A71 VP1 = assay: Western blot of EV-A71 VP1 level in RD cells; details: for reduction of VP1 level (densitometric assay): 50 μM; for EV-A71 VP1 protein level (in words): indicated concentrations
Procedure: (§1) FIGS. 10A-10K. Peptide S78 inhibited EV-A71 replication and propagation. (FIG. 10A) RD cells were pre-treated with peptides S78 or for 2 hours and infected with EV-A71 at the MOI of 10 for 6 hours. Cell lysates were collected for western blot assay. Hsp27 phosphorylation on Ser 15, 78, 82 were detected by specific antibodies. β-Actin were detected as internal control. (FIG. 10B) Densitometric analysis of FIG. 9A. (FIG. 10C) HEK 293T cells were pre-treated with peptides S78 or S78A at the concentration of 25 μM for 2 hours and then co-transfected with Hsp27-WT plasmid (800 ng), pIRES reporter plasmid (200 ng) and 2A^pro-expressing plasmid or 2AC110A-expressing plasmid (200 ng) for 24 h, then the luciferase activity was measured. (FIG. 10D-10E) RD cells were treated with peptides S78 or S78A and then infected with EV-A71. EV-A71 VP1 were detected. (FIG. 10F) RD cells were treated with peptides and then infected with EV-A71 at the MOI of 1 for 12 hours. The EV-A71-induced CPE was captured. (FIG. 10G-10H) Intracellular viral RNA was extracted and quantified by qPCR. (FIG. 10I) Densitometric analysis FIG. 9D-E. (FIG. 10J) RD cells were treated with peptides S78 or and then infected with EV-A71 at the MOI of 1 for 12 hours. Extracellular viral RNA was extracted and quantified by qPCR. (FIG. 10K) Viral titration was calculated by TCID50. The Statistical analyses were carried out using Student's t-test. *: p<0.05, **: p<0.01, ***: p<0.001. Data are expressed as mean ±SD.
FIGS. 11A-11G Inhibition of EV-A71 Protein Translation and Viral Reproduction by peptide S82A. (FIG. 11A) HEK 293T cells were pre-treated with peptides NC, S78, S78A, S82A, or S78-3A at the concentration of 25 μM for 2 hours and then co-transfected with Hsp27-WT plasmid (800 ng), pIRES reporter plasmid (200 ng) and 2A^pro-expressing plasmid for 24 h, then the luciferase activity was measured. (FIG. 11B) RD cells were pre-treated with peptides NC at indicated concentrations for 2 hours and infected with EV-A71 at the MOI of 1 for 9 hours. Intracellular viral RNA was extracted and quantified by qPCR. (FIG. 11C-11E) RD cells were treated with peptides NC, S82A, or S78-3A at indicated concentrations for 2 hours and then infected with EV-A71 at the MOI of 1 for 9 hours. Cell lysates were collected for western blot assay. EV-A71 VP1 were detected. β-Actin was detected as an internal control. (FIG. 11F) Densitometric analysis of the EV-A71 VP1 level in FIG. S7C-E was quantified and normalized with β-Actin using ImageJ. (FIG. 11G) RD cells were treated with peptides S78, S78A, S82A, or S78-3A at the concentration of 25 μM for 2 hours and then infected with EV-A71 at the MOI of 0.1 for 24 hours. Viral titration was calculated. The Statistical analyses were carried out using Student's t-test. *: p<0.05, **: p<0.01, ***: p<0.001. Data are expressed as mean ±SD.
After cell lysis in Nonidet-P40 (NP-40) buffer, the cell lysates were centrifuged, and the concentration was determined by Bradford assay (Bio-Rad). 20 μg of protein was used for 12% SDS-PAGE and transferred onto polyvinylidene fluoride membrane (PVDF) (GE, MA, USA). Following 5% bovine serum albumin (BSA) blocking for 1 hrs, the membrane was incubated with antibodies (1:1000) against Hsp27 (sc-13132), pHsp27-Ser15 (ab76313), pHsp27-Ser78 (ADI-SPA-523), pHsp27-Ser82 (ab155987), VP1 (GTX132339), β-Actin (sc-47778), hnRNP A1 (sc-32301), or GAPDH (sc-32233) overnight in 4° C. After secondary antibodies (HRP-conjugated Affinipure Goat Anti-Mouse IgG(H+L), SA00001-1, and HRP-conjugated Affinipure Goat Anti-Rabbit IgG(H+L), SA00001-2) incubation for 1 hrs, the protein was visualized with a chemiluminescence reagent (PerkinElmer, MA, USA) on Bio-Rad Chemidoc Imaging System. The protein bands were quantified by densitometry with ImageJ if necessary.

EV-A71 = assay: Virus titration (TCID50); details: 25 μM for 2 hours, EV-A71 MOI 0.1 for 24 hours, RD cells (FIG. 11G)
Procedure: as §1, with “The Statistical analyses were carried out using Student's t-test. *: p<0.05, **: p<0.01, ***: p<0.001.” left out
FIGS. 11A-11G Inhibition of EV-A71 Protein Translation and Viral Reproduction by peptide S82A. (FIG. 11A) HEK 293T cells were pre-treated with peptides NC, S78, S78A, S82A, or S78-3A at the concentration of 25 μM for 2 hours and then co-transfected with Hsp27-WT plasmid (800 ng), pIRES reporter plasmid (200 ng) and 2A^pro-expressing plasmid for 24 h, then the luciferase activity was measured. […] Intracellular viral RNA was extracted and quantified by qPCR. […] EV-A71 VP1 were detected. β-Actin was detected as an internal control. (FIG. 11F) Densitometric analysis of the EV-A71 VP1 level in FIG. S7C-E was quantified and normalized with β-Actin using ImageJ. […] Viral titration was calculated. […] Data are expressed as mean ±SD. […]

EV-A71 IRES activity = assay: Dual-luciferase IRES reporter assay in HEK 293T cells pre-treated with peptides; details: 25 μM for 2 hours, 24 h (FIG. 11A)
Procedure: as §1
FIGS. 11A-11G Inhibition of EV-A71 Protein Translation and Viral Reproduction by peptide S82A. (FIG. 11A) HEK 293T cells were pre-treated with peptides NC, S78, S78A, S82A, or S78-3A at the concentration of 25 μM for 2 hours and then co-transfected with Hsp27-WT plasmid (800 ng), pIRES reporter plasmid (200 ng) and 2A^pro-expressing plasmid for 24 h, then the luciferase activity was measured. (FIG. 11B) RD cells were pre-treated with peptides NC at indicated concentrations for 2 hours and infected with EV-A71 at the MOI of 1 for 9 hours. Intracellular viral RNA was extracted and quantified by qPCR. […] EV-A71 VP1 were detected. β-Actin was detected as an internal control. (FIG. 11F) Densitometric analysis of the EV-A71 VP1 level in FIG. S7C-E was quantified and normalized with β-Actin using ImageJ. […] Viral titration was calculated. […] Data are expressed as mean ±SD.
HEK 293T cells were seeded in 24-wells, and then co-transfected with plasmids to simultaneously express 2A^pro (200 ng), pIRES reporter (200 ng), and the wild-type Hsp27 or its mutants (800 ng). […] The Renilla luciferase (RLuc) and Firefly luciferase (FLuc) activity were determined by using a dual-luciferase reporter assay (Promega) according to the manufacturer's instructions in a Lumat LB9507 bioluminometer.

RD cells = assay: CCK-8 assay; details: data not shown
Procedure: (§2) RD cells were seeded in 96-well cell plates (1×10^4/well) and placed in the 5% CO2 incubator for 1 day. Then the cells were treated with peptides for 2 days. 90 μl medium and 10 μl of CCK-8 (BioSharp, BS350B) was added to each well of the 96-well plate, which were incubated at 37° C. for 1 h. A microplate reader (BioTek, Synergy H1) was used to measure the OD value of each well at 450 nm.

[1] = system: Hsp27 and hnRNP A1 redistribution in RD cells; assay: Immunofluorescence colocalization assay of Hsp27/hnRNP A1 redistribution, RD cells with or without EV-A71 infection; details: 25 μM for 2h; for redistribution of Hsp27 and hnRNP A1 in EV-A71-infected RD cells: EV-A71 MOI 40 for 6h
Procedure: (§3) The cells on coverslips were infected with EV-A71 at the multiplicity of infection (MOI) of 40 for 6 hrs to assure the high efficiency of viral infection. Then the cells were fixed by 4% paraformaldehyde for 20 min, permeabilized by 0.5% Triton X-100 for 15 min, blocked with 5% BSA for 2 hrs, and stained by incubation with anti-Hsp27 (GTX101145) and anti-hnRNP A1 (sc-32301) antibody, then with Alexa Fluor 488 conjugated anti-rabbit antibody and Alexa Fluor 594 conjugated anti-mouse antibody respectively. After washing four times with 0.2% Triton X-100, the nuclei were stained with DAPI or Hoechst for 5 min. The images were captured by a Nikon A1HD25 High speed and Large Field of View Confocal Microscope. Colocalization analysis was conducted using the JACoP-plugin of the extended ImageJ version Fiji. The M1 colocalization coefficient was computed to illustrate the colocalization levels of Hsp27 and hnRNP A1 overlapped with Hoechst.
Hsp27 is predominantly located in the cytoplasm, however, stress (e.g., heat shock, virus infection) can induce partial redistribution of Hsp27 from the cytoplasm to the nucleus, concomitantly with its phosphorylation. We thus postulated that the cellular redistribution of Hsp27 may be associated with its phosphorylation upon EV-A71 infection. To verify the hypothesis, RD cells were with SB203580 at 0, 2, 4, and 8 μM for 2 h, and the cells were infected with EV-A71 for 6 h. […] The colocalization of Hsp27 and DAPI, which stands for the level of redistribution of Hsp27, was also quantified. The colocalization coefficient M1 was computed as the fraction of Hsp27 colocalized with DAPI in the total Hsp27 area using the JACoP-plugin in FIJI.
We hypothesized that peptides S78 and S82A could interfere with Ser78 phosphorylation while peptides S78A (Ser78 replaced by Ala78) would not affect the phosphorylation of Ser78 of Hsp27. […] RD cells were pre-treated with peptide S78, S78A or S82A at the concentrations of 25 μM for 2h and then infected with or without EV-A71 at an MOI of 40 for 6h.

CCK-8 assay = details: human; RD cells, data not shown
Procedure: as §2

[2] = system: 2Apro-induced relocalization of Hsp27 and hnRNP A1 in RD cells; assay: Immunofluorescence colocalization assay of 2Apro-induced relocalization of Hsp27 and hnRNP A1; details: 25 μM for 2 hours, transfected with 2Apro for 24 hours
Procedure: FIGS. 9A-9B Peptide S78 blocks the 2A^pro-induced relocalization of Hsp27 and hnRNP A1. RD cells on the coverslips were treated with peptides (S78, S78A, and S82A) at the concentration of 25 μM for 2 hours, and then transfected with 2A^pro for 24 hours. The cells were fixed and stained with anti-Hsp27and anti-hnRNPAI, followed by Alexa Fluor 488-conjugated anti-rabbit antibody and Alexa Fluor 594-conjugated anti-mouse antibody. The nuclei were stained with Hoechst. The images were captured by Nikon A1HD25 Confocal Microscope. The JACoP-plugin of the extended ImageJ version Fiji was used to compute the M1 colocalization coefficient, in which (FIG. 9A) is M1 colocalization coefficient for the fraction of Hsp27 in Hoechst and (FIG. 9B) is the M1 colocalization coefficient for the fraction of hnRNP A1 in Hoechst. Statistical analyses were carried out using Student's t-test. *: p<0.05, **: p<0.01, ***: p<0.001. Data are expressed as mean ±SD.
as §3

Substance	reduction of VP1 level (densitometric assay) (EV-A71 VP1)	EV-A71 VP1 protein level (in words) (EV-A71 VP1)	effect on viral titer (in words) (EV-A71)	effect on viral IRES activity (in words) (EV-A71 IRES activity)	CC50 (in words) (RD cells)	redistribution of Hsp27 and hnRNP A1 in EV-A71-infected RD cells [1]	CC50 at 2 days (CCK-8 assay) [µM]	2Apro-induced relocalization of Hsp27 and hnRNP A1 [2]	localization of Hsp27 and hnRNP A1 in mock RD cells ([1]; without EV-A71)
Ac-RKKRRQRRRAYSRAAAAQLSS-NH2 [S78-3A]	about 60%	much weaker	mildly decreased	mildly decreased	high	partially suppressed			
Ac-RKKRRQRRRAYSRALSRQLAS-NH2 [S82A]	> 90%	a little bit weaker inhibition				dramatically blocked	> 600	almost completely blocked	not affected
